Laboratory results published in US8436003B2, “Substituted imidazo- and triazolopyrimidines, imidazo- and pyrazolopyrazines and imidazotriazines” (Bayer Intellectual Property GmbH, priority 2008, dated 2013).

Molecular target: T1, GSK3β (Homo sapiens, UniProt P49841)
T1 construct: purchased Upstate 14-306
Assay: In vitro biochemical GSK3β inhibition assay (coupled pyruvate kinase/lactate dehydrogenase, NADH fluorescence)
Conditions: 5 nM GSK3β, 40 μM GSK3β substrate GSM, 50 μM ATP, 30° C. for 2 hours
Protocol: The inhibitory activity of active substances is determined in a biochemical assay. The ingredients required for this purpose are mixed in a black 384-well microtitre plate with transparent base (from Greiner, catalogue number 781092). The requirements in this connection for each well of the 384-well microtitre plate are 5 nM GSK3β (from Upstate, catalogue number 14-306), 40 μM GSK3β substrate GSM (sequence H-RRRPASVPPSPSLSRHS-(pS)-HQRR, from Upstate, catalogue number 2-533), 30 μM nicotinamide adenine dinucleotide NADH (Roche Diagnostics, catalogue number 10107735), 50 μM adenosine triphosphate ATP (from Sigma, catalogue number A7966), 2 mM phosphoenolpyruvate (from Roche, catalogue number 128112), and also about 1 U/ml of pyruvate kinase and about 1 U/ml of lactate dehydrogenase, which are present together in a stock formulation (from Roche, catalogue number 10737291001, suspension with about 450 U/ml of pyruvate kinase activity, about 450 U/ml of lactate dehydrogenase activity in […] ammonium sulphate solution pH 6), where 1 unit pyruvate kinase converts, at pH 7.6 and 37° C., 1 μmol of phosphoenolpyruvate into pyruvate per minute, and where 1 unit of lactate dehydrogenase reduces, at pH 7.5 and 37° C., 1 μmol of pyruvate to lactate per minute. The required reaction buffer in which the biochemical reaction takes place consists of 50 mM Trizma hydrochloride Tris-HCl pH: 7.5 (from Sigma, catalogue number T3253), 5 mM magnesium chloride MgCl2 (from Sigma, catalogue number M8266), 0.2 mM DL-dithiothreitol DTT (from Sigma, catalogue number D9779), 2 mM ethylenediaminetetraacetic acid EDTA (from Sigma, catalogue number E6758), 0.01% Triton X-100 (from Sigma, catalogue number T8787) and 0.05% bovine serum albumin BSA (from Sigma, catalogue number B4287).
Active substances are dissolved in dimethyl sulfoxide DMSO (from Sigma, catalog number D8418) in a concentration of 10 mM. Active substances are added in serial concentrations of 10 μM, 1 μM, 0.1 μM, 0.01 μM, 0.001 μM, 0.0001 μM, 0.00001 μM, 0.000001 μM to the mixtures of the biochemical reaction. As control, dimethyl sulfoxide is added instead of substance in a final concentration of 0.1%.
The reaction is incubated at 30° C. for 2 hours and then the resulting fluorescence is measured in a Tecan Safire-XFLUOR4 instrument, version V4.50 (serial number 12901300283) with the specifications: measurement mode—fluorescence measured from below, extinction wavelength 340 nm, emission wavelength 465 nm, slit width extinction 5 nm, slit width emission 5 nm, gain mode 120, delay 0 μs, number of light flashes per measurement 3, and an integration time of 40 μs.
The activity of the active substances is calculated in relation to these 0% and 100%.

T1 sequence (P49841 whole entry): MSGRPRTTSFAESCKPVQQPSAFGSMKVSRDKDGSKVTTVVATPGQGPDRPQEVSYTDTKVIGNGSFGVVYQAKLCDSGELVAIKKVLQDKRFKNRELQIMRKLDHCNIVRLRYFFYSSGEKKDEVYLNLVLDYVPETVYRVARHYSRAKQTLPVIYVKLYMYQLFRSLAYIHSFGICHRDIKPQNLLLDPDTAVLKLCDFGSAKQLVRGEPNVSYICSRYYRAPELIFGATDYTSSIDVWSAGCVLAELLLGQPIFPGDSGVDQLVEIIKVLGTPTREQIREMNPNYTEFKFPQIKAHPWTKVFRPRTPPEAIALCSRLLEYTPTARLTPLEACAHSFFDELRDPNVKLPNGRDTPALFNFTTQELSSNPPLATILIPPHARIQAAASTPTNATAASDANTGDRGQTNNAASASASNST

SMILES	IC50 [nM]
CC(C)N1CCC(c2nc3cc(-c4ccc(F)cc4Cl)nc(N4CCCC(Nc5ccc(C(=O)C(F)(F)F)c(N)n5)C4)n3n2)CC1 (racemic) [Example Ent-A-13, 1-{2-Amino-6-[(1-{7-(2-chloro-4-fluorophenyl)-2-[1-(propan-2-yl)piperidin-4-yl][1,2,4]-triazolo[1,5-c]pyrimidin-5-yl}piperidin-3-yl)amino]pyridin-3-yl}-2,2,2-trifluoroethanone]	2
CC(C)N1CCC(c2nc3cc(-c4ccc(F)cc4Cl)nc(N4CCCC(Nc5ccc(C(=O)C(F)(F)F)c(N)n5)C4)n3n2)CC1 (racemic) [Example 13, 1-{2-Amino-6-[(1-{7-(2-chloro-4-fluorophenyl)-2-[1-(propan-2-yl)piperidin-4-yl][1,2,4]-triazolo[1,5-c]pyrimidin-5-yl}piperidin-3-yl)amino]pyridin-3-yl}-2,2,2-trifluoroethanone]	4
CC(C)N1CCC(c2nc3cc(-c4ccc(Cl)cc4Cl)nc(N4CCCC(Nc5ccc(C(=O)C(F)(F)F)c(N)n5)C4)n3n2)CC1 (stereo not drawn) [Example 5, 1-{2-Amino-6-[(1-{7-(2,4-dichlorophenyl)-2-[1-(propan-2-yl)piperidin-4-yl][1,2,4]triazolo[1,5-c]-pyrimidin-5-yl}piperidin-3-yl)amino]pyridin-3-yl}-2,2,2-trifluoroethanone]	10

More lines, in order of falling IC50, values ahead:

IC50 [nM]	SMILES
20	Nc1nc(NCCNc2nc(-c3ccc(Cl)cc3Cl)cc3nc(C4CCN(CC5CC5)CC4)nn23)ccc1C(=O)C(F)(F)F [Example 21, 1-(2-Amino-6-{[2-({2-[1-(cyclopropylmethyl)piperidin-4-yl]-7-(2,4-dichlorophenyl)-[1,2,4]triazolo[1,5-c]pyrimidin-5-yl}amino)ethyl]amino}pyridin-3-yl)-2,2,2-trifluoroethanone]
15	CC(C)N1CCC(c2nc3cc(-c4ccc(Cl)cc4Cl)nc(NCCNc4ccc(C(=O)C(F)(F)F)c(N)n4)n3n2)CC1 [Example 1, 1-(2-Amino-6-{[2-({7-(2,4-dichlorophenyl)-2-[1-(propan-2-yl)piperidin-4-yl][1,2,4]triazolo[1,5-c]-pyrimidin-5-yl}amino)ethyl]amino}pyridin-3-yl)-2,2,2-trifluoroethanone]
9	Nc1nc(NCCNc2nc(-c3ccc(Cl)cc3Cl)cc3nc(C4CCN(CC(=O)O)CC4)nn23)ccc1C(=O)C(F)(F)F [Example 23, (4-{5-[(2-{[6-Amino-5-(trifluoroacetyl)pyridin-2-yl]amino}ethyl)amino]-7-(2,4-dichlorophenyl)-[1,2,4]triazolo[1,5-c]pyrimidin-2-yl}piperidin-1-yl)acetic acid]
